Data from US20100273770A1, “1, 2, 4 -OXADIAZOLE COMPOUNDS FOR THE TREATMENT OF AUTOIMMUNE DISEASES” (priority 2007, published 2010).
Counter-ions that a name gives are not always drawn.

Assays:
human S1P3 receptor = target: T1, human S1P3 receptor (Homo sapiens, UniProt Q99500); assay: S1P3 GTPγS assay; assay type: biochemical; settings: [35S]-GTPγS binding, S1P3 RBL-2H3 membranes, agonist; read-out: pEC50 (S1P3 GTPγS assay) (converted)
T1 construct: expressed in transfected cells; membranes
Protocol: (§1) For membrane preparations all steps were performed at 4° C. Rat hepatoma cells stably expressing the human S1P1 receptor or Rat Basophilic Leukaemia cells (RBL) stably expressing human S1P3 receptor were grown to 80% confluency before being harvested into 10 ml Phospho-Buffered Saline (PBS) and centrifuged at 1200 rpm for 5 minutes. After removal of the supernatant, the pellet was re-suspended and cells were homogenised within a glass Waring blender for 2 bursts of 15 secs in 200 mls of buffer (50 mM HEPES, 1 mM leupeptin, 25 μg/ml bacitracin, 1 mM EDTA, 1 mM PMSF, 2 μM pepstatin A). The blender was plunged into ice for 5 mins after the first burst and 10-40 mins after the final burst to allow foam to dissipate. The material was then spun at 500 g for 20 mins and the supernatant spun for 36 mins at 48,000 g. The pellet was resuspended in the same buffer as above but without PMSF and pepstatin A. The material was then forced through a 0.6 mm needle, made up to the required volume, (usually ×4 the volume of the original cell pellet), aliquoted and stored frozen at −80° C.
S1P3 membranes from rat basophilic leukaemia cells (RBL-2H3)(1.5 μg/well) were adhered to WGA-coated SPA beads (0.125 mg/well) in assay buffer (HEPES 20 mM, MgCl2 3 mM, NaCl 100 mM and pH adjusted to 7.4 using KOH 5M), GDP 10 μM FAC and saponin 90 μg/ml FAC was also added).
(§2) After 30 minutes pre-coupling on ice the bead and membrane suspension was dispensed into a white Greiner polypropylene LV384-well plate (5 μl/well), containing 0.1 μl of the compound. 5 μl/well [^35S]-GTPγS (0.5 nM final radioligand conc) made up in assay buffer was then added to agonist plates. The final assay cocktail (10.1 μl) was centrifuged at 1000 rpm for 5 minutes then read immediately on a Viewlux reader.
(§3) All test compounds were dissolved in DMSO at a concentration of 10 mM and were prepared in 100% DMSO using a 1 in 4 dilution step to provide 11 point dose response curves. The dilutions were transferred to the assay plates ensuring that the DMSO concentration was constant across the plate for all assays.
(§4) All data was normalized to the mean of 16 high and 16 low control wells on each plate. A four parameter curve fit was then applied.
(§5) S1P3 expressing RBL membranes (1.5 μg/well) were homogenised by passing through a 23G needle. These were then adhered to WGA-coated SPA beads (0.125 mg/well) in assay buffer (HEPES 20 mM, MgCl2 10 mM, NaCl 100 mM and pH adjusted to 7.4 using KOH 5M). GDP 10 μM FAC and saponin 90 μg/ml FAC were also added
(§6) After 30 minutes precoupling on ice, the bead and membrane suspension was dispensed into white Greiner polypropylene LV 384-well plates (5 μl/well), containing 0.1 μl of compound. 5 μl/well [^35S]-GTPγS (0.5 nM for S1P1 or 0.3 nM for S1P3 final radioligand concentration) made in assay buffer was then added to the plates. The final assay cocktail (10.1 μl) was then sealed, spun on a centrifuge, then read immediately on a Viewlux instrument.

human S1P1 receptor = target: T2, human S1P1 receptor (Homo sapiens, UniProt P21453); assay: S1P1 GTPγS assay; assay type: biochemical; settings: [35S]-GTPγS binding, human S1P1 rat hepatoma (RH7777) membranes, agonist; read-out: pEC50 (S1P1 GTPγS assay) (converted)
T2 construct: expressed in transfected cells; membranes
Protocol: as §1
as §1, with “All” for “For membrane preparations all”, “Cells” for “Rat hepatoma cells stably expressing the human S1P1 receptor or Rat Basophilic Leukaemia cells (RBL) stably expressing human S1P3 receptor were grown to 80% confluency before being harvested into 10 ml Phospho-Buffered Saline (PBS) and centrifuged at 1200 rpm for 5 minutes. After removal of the supernatant, the pellet was re-suspended and cells”
Human S1P1 rat hepatoma membranes (1.5 μg/well) were adhered to a wheatgerm agglutinin (WGA)-coated scintillation proximity assay (SPA) beads (0.125 mg/well) in assay buffer (HEPES 20 mM, MgCl2 10 mM, NaCl 100 mM and pH adjusted to 7.4 using KOH 5M, GDP 10 μM FAC (final assay concentration) and saponin 90 μg/ml FAC was also added).
as §2, with “μl) was then centrifuged at” for “μl) was centrifuged at”
as §3, §4
as §5, with “S1P1” for “S1P3”, “RH7777 membranes (1.5 μg/well)” for “RBL”
as §6

[1] = clinical studies, first 24 hours of treatment; cited from earlier work
circulating lymphocytes = settings: animals and man; cited from earlier work

T2 sequence (P21453 whole entry): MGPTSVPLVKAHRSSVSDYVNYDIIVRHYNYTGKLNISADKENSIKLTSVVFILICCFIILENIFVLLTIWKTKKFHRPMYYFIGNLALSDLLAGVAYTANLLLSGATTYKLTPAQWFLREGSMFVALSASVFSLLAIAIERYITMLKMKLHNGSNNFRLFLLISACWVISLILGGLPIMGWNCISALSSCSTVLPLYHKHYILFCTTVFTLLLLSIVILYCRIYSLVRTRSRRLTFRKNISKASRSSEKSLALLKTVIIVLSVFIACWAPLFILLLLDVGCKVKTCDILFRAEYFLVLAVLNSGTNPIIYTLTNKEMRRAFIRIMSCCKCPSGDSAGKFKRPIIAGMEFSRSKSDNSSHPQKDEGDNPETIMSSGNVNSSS
T1 sequence (Q99500 whole entry): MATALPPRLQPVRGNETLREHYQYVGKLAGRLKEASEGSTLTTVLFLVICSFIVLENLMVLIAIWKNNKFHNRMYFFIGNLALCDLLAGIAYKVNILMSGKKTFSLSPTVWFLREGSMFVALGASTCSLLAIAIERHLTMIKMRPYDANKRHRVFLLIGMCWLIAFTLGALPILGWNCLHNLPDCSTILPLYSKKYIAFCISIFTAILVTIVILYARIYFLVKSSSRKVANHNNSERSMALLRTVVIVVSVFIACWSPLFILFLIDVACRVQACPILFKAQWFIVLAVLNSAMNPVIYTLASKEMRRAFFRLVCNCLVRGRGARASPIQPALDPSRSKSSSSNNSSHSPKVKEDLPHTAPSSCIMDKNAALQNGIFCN

SMILES | EC50 (human S1P3 receptor) [µM] | EC50 (human S1P1 receptor) [µM] | bradycardia on treatment [1] | effect on circulating lymphocytes (circulating lymphocytes)
CC(C)Oc1ccc(-c2nc(-c3ccc4c(c3)CCCNC4CCC(N)=O)no2)cc1Cl (centres unmarked) [Example 1, 3-[7-(5-{3-chloro-4-[(1-methylethyl)oxy]phenyl}-1,2,4-oxadiazol-3-yl)-2,3,4,5-tetrahydro-1H-2-benzazepin-1-yl]propanamide] | > 10 |  |  | 
CC(C)Oc1ccc(-c2nc(-c3ccc4c(c3)CCCNC4CCC(=O)O)no2)cc1Cl (centres unmarked) [Example 2, 3-[7-(5-{3-Chloro-4-[(1-methylethyl)oxy]phenyl}-1,2,4-oxadiazol-3-yl)-2,3,4,5-tetrahydro-1H-2-benzazepin-1-yl]propanoic acid hydrochloride] | > 10 |  |  | 
CC(C)Oc1ccc(-c2nc(-c3ccc4c(c3)CCCNC4CCCO)no2)cc1Cl (centres unmarked) [Example 3, 3-[7-(5-{3-Chloro-4-[(1-methylethyl)oxy]phenyl}-1,2,4-oxadiazol-3-yl)-2,3,4,5-tetrahydro-1H-2-benzazepin-1-yl]-1-propanol hydrochloride] | > 10 |  |  | 
CC(C)Oc1ccc(-c2nc(-c3ccc4c(c3)CNC(C(=O)O)CO4)no2)cc1Cl (centres unmarked) [Example 5, 7-(5-{3-Chloro-4-[(1-methylethyl)oxy]phenyl}-1,2,4-oxadiazol-3-yl)-2,3,4,5-tetrahydro-1,4-benzoxazepine-3-carboxylic acid hydrochloride] |  | < 0.1 |  | 
CC(C)Oc1ccc(-c2nc(-c3ccc4c(c3)CNC(CCC(=O)O)CO4)no2)cc1Cl (centres unmarked) [Example 6, 3-[7-(5-{3-Chloro-4-[(1-methylethyl)oxy]phenyl}-1,2,4-oxadiazol-3-yl)-2,3,4,5-tetrahydro-1,4-benzoxazepin-3-yl]propanoic acid hydrochloride] |  | < 0.01 |  | 
CC(C)Oc1ccc(-c2nc(-c3cccc4c3OCCNC4CC(=O)O)no2)cc1Cl (centres unmarked) [Example 7, [9-(5-{3-Chloro-4-[(1-methylethyl)oxy]phenyl}-1,2,4-oxadiazol-3-yl)-2,3,4,5-tetrahydro-1,4-benzoxazepin-5-yl]acetic acid hydrochloride] | > 10 | < 0.1 |  | 
CC(C)Oc1ccc(-c2nc(-c3cccc4c3OCCNC4CC(=O)O)no2)cc1C#N (centres unmarked) [Example 8, [9-(5-{3-cyano-4-[(1-methylethyl)oxy]phenyl}-1,2,4-oxadiazol-3-yl)-2,3,4,5-tetrahydro-1,4-benzoxazepin-5-yl]acetic acid] | > 10 |  |  | 
CC(C)Oc1ncc(-c2nc(-c3cccc4c3OCCNC4CC(=O)O)no2)cc1Cl (centres unmarked) [Example 9, [9-(5-{5-Chloro-6-[(1-methylethyl)oxy]-3-pyridinyl}-1,2,4-oxadiazol-3-yl)-2,3,4,5-tetrahydro-1,4-benzoxazepin-5-yl]acetic acid] | > 10 | < 0.1 |  | 
CC(C)Oc1ccc(-c2nc(-c3cccc4c3OCCNC4CCCC(=O)O)no2)cc1C#N (centres unmarked) [Example 10, 4-[9-(5-{3-cyano-4-[(1-methylethyl)oxy]phenyl}-1,2,4-oxadiazol-3-yl)-2,3,4,5-tetrahydro-1,4-benzoxazepin-5-yl]butanoic acid hydrochloride salt] | > 10 | < 0.1 |  | 
CC(C)Oc1ncc(-c2nc(-c3cccc4c3OCCNC4CCCC(=O)O)no2)cc1Cl (centres unmarked) [Example 11, 4-[9-(5-{5-chloro-6-[(1-methylethyl)oxy]-3-pyridinyl}-1,2,4-oxadiazol-3-yl)-2,3,4,5-tetrahydro-1,4-benzoxazepin-5-yl]butanoic acid hydrochloride] |  | < 0.1 |  | 
CC(C)Oc1ccc(-c2nc(-c3cccc4c3OCCNC4CCCC(=O)O)no2)cc1Cl (centres unmarked) [Example 12, 4-[9-(5-{3-chloro-4-[(1-methylethyl)oxy]phenyl}-1,2,4-oxadiazol-3-yl)-2,3,4,5-tetrahydro-1,4-benzoxazepin-5-yl]butanoic acid hydrochloride] | > 10 | < 0.01 |  | 
CC(C)Oc1ccc(-c2nc(-c3cccc4c3OCCNC4CCC(=O)O)no2)cc1Cl (centres unmarked) [Example 13, 3-[9-(5-{3-Chloro-4-[(1-methylethyl)oxy]phenyl}-1,2,4-oxadiazol-3-yl)-2,3,4,5-tetrahydro-1,4-benzoxazepin-5-yl]propanoic acid, formic acid salt] | > 10 | < 0.01 |  | 
CC(C)Oc1ccc(-c2nc(-c3cccc4c3OCCNC4CCC(=O)O)no2)cc1C#N (centres unmarked) [Example 14, 3-[9-(5-{3-cyano-4-[(1-methylethyl)oxy]phenyl}-1,2,4-oxadiazol-3-yl)-2,3,4,5-tetrahydro-1,4-benzoxazepin-5-yl]propanoic acid, formic acid salt] |  | < 0.01 |  | 
CCCCCCCCc1ccc(CCC(N)(CO)CO)cc1 [FTY720] |  |  | bradycardia in the first 24 hours of treatment | reduce circulating lymphocytes
